Laboratory results: publication PMC8545135, “Discovery of Bacterial Fimbria–Glycan Interactions Using Whole-Cell Recombinant Escherichia coli Expression” (mBio, 2021)

Experiments:
[1] = target: T1, K88 (E. coli); F4ac (K88ac) fimbriae, MS428(pK88-AC) (Escherichia coli, UniProt P14190); experiment: whole-cell SPR, Biacore T200, C1 chip, single-cycle kinetics; assay type: cell-based; conditions: fimbriae on immobilized whole cells; MS428 reference cell
T1 construct: gene faeG; native F4ac fimbriae on whole cells of fim-negative E. coli MS428, plasmid pK88-AC with F4ac gene cluster
From the text: whole-cell SPR, Biacore T200, C1 chip, single-cycle kinetics on K88 (E. coli); F4ac (K88ac) fimbriae, MS428(pK88-AC)

[2] = target: T2, FimH (E. coli); type 1 fimbriae, MS428(pPKL4) (Escherichia coli, UniProt P08191); experiment: as above; assay type: cell-based; conditions: fimbriae on immobilized whole cells; MS428 reference cell
T2 construct: with Type-1 fimbrial protein, A chain; Protein FimF; Protein FimG
From the text: whole-cell SPR, Biacore T200, C1 chip, single-cycle kinetics on FimH (E. coli); type 1 fimbriae, MS428(pPKL4)

[3] = target: T3, FimH^LD (purified FimH lectin-binding domain) (Escherichia coli, UniProt P08191); experiment: SPR, CM5 chip, immobilized protein; conditions: glycans 1.6 nM to 1 μM
T3 construct: purified as previously described
From the text: SPR, CM5 chip, immobilized protein on FimH^LD (purified FimH lectin-binding domain)

T3 sequence (P08191 22-179): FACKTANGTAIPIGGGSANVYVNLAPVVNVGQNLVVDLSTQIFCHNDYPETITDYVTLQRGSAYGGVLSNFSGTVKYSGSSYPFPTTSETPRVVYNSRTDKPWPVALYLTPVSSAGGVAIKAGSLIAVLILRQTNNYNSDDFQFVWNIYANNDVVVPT
T1 sequence (P14190 22-283 limits assumed): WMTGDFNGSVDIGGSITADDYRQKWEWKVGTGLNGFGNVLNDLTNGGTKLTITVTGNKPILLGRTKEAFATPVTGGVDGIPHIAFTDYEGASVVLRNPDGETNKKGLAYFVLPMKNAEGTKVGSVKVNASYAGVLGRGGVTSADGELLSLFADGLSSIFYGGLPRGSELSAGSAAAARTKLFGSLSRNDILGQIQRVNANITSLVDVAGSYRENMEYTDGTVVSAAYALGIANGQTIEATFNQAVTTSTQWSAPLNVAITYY
T2 sequence (P08191 22-300): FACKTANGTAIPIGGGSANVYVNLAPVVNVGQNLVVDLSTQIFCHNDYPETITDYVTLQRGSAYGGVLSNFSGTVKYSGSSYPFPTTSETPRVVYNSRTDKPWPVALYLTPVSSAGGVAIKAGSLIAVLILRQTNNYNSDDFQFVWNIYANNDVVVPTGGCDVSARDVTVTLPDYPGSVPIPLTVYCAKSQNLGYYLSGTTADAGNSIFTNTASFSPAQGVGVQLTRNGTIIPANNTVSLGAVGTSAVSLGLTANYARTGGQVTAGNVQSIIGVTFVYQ
T2 sequence (P04128 24-182, further chain): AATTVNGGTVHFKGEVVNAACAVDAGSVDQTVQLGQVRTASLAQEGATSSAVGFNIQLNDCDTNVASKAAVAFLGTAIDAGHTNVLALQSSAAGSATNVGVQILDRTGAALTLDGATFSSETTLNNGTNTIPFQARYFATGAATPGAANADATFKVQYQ

Compound | Disassociation constant^a: / K88 (E. coli) [1] [µM] | Disassociation constant^a: / FimH (E. coli) [2] [µM] | Disassociation constant^a: / FimH (protein) [3] [nM]
OC[C@H]1O[C@H](O[C@H]2[C@@H](O)[C@@H](CO)OC(O)[C@@H]2O)[C@H](O)[C@@H](O)[C@H]1O (stereo partly drawn) [Galα1-3Gal] | 0.1603 ± 0.03 | – | –
OCC1OC(OCC2OC(OCC3OC(O)C(O)C(OC4OC(CO)C(O)C(O)C4O)C3O)C(O)C(OC3OC(CO)C(O)C(O)C3O)C2O)C(O)C(O)C1O (stereo not drawn) [Man5] | – | 2.0 ± 0.842 | 607 ± 142
Man5NAc | – | 0.0274 ± 0.0168 | 25.9 ± 8.9
CC(=O)N[C@H]1[C@H](O[C@@H]2[C@H](O)[C@@H](O)[C@H](O[C@H]3[C@H](O)[C@@H](O)C(O)O[C@@H]3CO)O[C@@H]2CO)O[C@H](CO)[C@H](O)[C@@H]1O[C@@H]1O[C@H](CO)[C@H](O)[C@H](O)[C@H]1O (stereo partly drawn) [1F, AsialoGM1] | 11.02 ± 3.9 | – | –
